According to US10681909B2, “Herbicidal triazoles” (FMC Corporation, priority 2014, dated 2020):

Key:
barnyardgrass [1] = assay: Test A preemergence; format: in vivo, Echinochloa crus-galli; conditions: Echinochloa crus-galli, pre-emergence, 240 h, 0 to 100 scale (0 no effect, 100 complete control), read-out: Plant response rating, Barnyardgrass
In short: (§1)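 Pre- and postemergence spray tests in a loam soil–sand mixture: seeded soil received a directed spray, while established seedlings 2–10 cm high at the one- to two-leaf stage were treated over the top. Compounds were carried in non-phytotoxic solvent with surfactant.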

foxtail, giant [2] = assay: Test A postemergence; format: in vivo, Setaria faberii; conditions: Setaria faberi, post-emergence, 240 h, 0 to 100 scale (0 no effect, 100 complete control), approx. 10 d, read-out: Plant response rating, Foxtail, Giant
In short: as §1

pigweed [3] = assay: Test A postemergence; format: in vivo, Amaranthus retroflexus; conditions: Amaranthus retroflexus, post-emergence, 240 h, 0 to 100 scale (0 no effect, 100 complete control), approx. 10 d, read-out: Plant response rating, Pigweed
In short: as §1

wheat = assay: Test A postemergence; format: in vivo, Triticum aestivum; conditions: Triticum aestivum, post-emergence, 240 h, 0 to 100 scale (0 no effect, 100 complete control), approx. 10 d, read-out: Plant response rating, Wheat
In short: as §1

barnyardgrass [4] = assay: Test B flooded paddy test; format: in vivo, Echinochloa crus-galli; conditions: Echinochloa crus-galli, 360 h, 250 g ai/ha, applied to paddy water at 2-leaf stage, visual rating after 13 to 15 d, scale 0 (no effect) to 100 (complete control), read-out: Plant response rating, Barnyardgrass, Flood
In short: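 Pots were flooded to 3 cm above the soil at treatment, and compounds were applied directly into the paddy water. That depth was held throughout. After 13 to 15 d in a greenhouse, plants were rated visually against untreated controls.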

blackgrass = assay: Test C postemergence; format: in vivo, Alopecurus myosuroides
Source text: (§2) Seeds of plant species selected from blackgrass (Alopecurus myosuroides), ryegrass, Italian (Italian ryegrass, Lolium multiflorum), wheat (winter wheat, Triticum aestivum), galium (catchweed bedstraw, Galium aparine), corn (Zea mays), crabgrass, large (large crabgrass, Digitaria sanguinalis), foxtail, giant, (giant foxtail, Setaria faberii), johnsongrass (Sorghum halepense), lambsquarters (Chenopodium album), morningglory (Ipomoea coccinea), nutsedge, yellow (yellow nutsedge, Cyperus esculentus), pigweed (Amaranthus retroflexus), ragweed (common ragweed, Ambrosia elatior), soybean (Glycine max), barnyardgrass (Echinochloa crus-galli), oilseed rape (Brassica napus), waterhemp (common waterhemp, Amaranthus rudis), and velvetleaf (Abutilon theophrasti) were planted into a blend of loam soil and sand and treated preemergence with test chemicals formulated in a non-phytotoxic solvent mixture which included a surfactant. At the same time, plants selected from these crop and weed species and also chickweed (common chickweed, Stellaria media), oat, wild (wild oat, Avena fatua), and kochia (Kochia scoparia), were planted in pots containing Sunshine Redi-Earth® planting medium comprising spaghnum peat moss, vermiculite, starter nutrients and dolomitic limestone and treated with postemergence applications of test chemicals formulated in the same manner. Plants ranged in height from 2 to 18 cm (1- to 4-leaf stage) for postemergence treatments. […] A dash (-) response means no test result.

galium = assay: Test C postemergence; format: in vivo, Galium aparine
Source text: as §2

corn = assay: Test C postemergence; format: in vivo, Zea mays
Source text: as §2

crabgrass, large = assay: Test C postemergence; format: in vivo, Digitaria sanguinalis
Source text: as §2

foxtail, giant [5] = assay: Test C postemergence; format: in vivo, Setaria faberii
Source text: as §2

johnsongrass = assay: Test C postemergence; format: in vivo, Sorghum halepense
Source text: as §2

lambsquarters = assay: Test C postemergence; format: in vivo, Chenopodium album
Source text: as §2

pigweed [6] = assay: Test C postemergence; format: in vivo, Amaranthus retroflexus
Source text: as §2

ragweed = assay: Test C postemergence; format: in vivo, Ambrosia elatior
Source text: as §2

barnyardgrass [7] = assay: Test C postemergence; format: in vivo, Echinochloa crus-galli
Source text: as §2

oilseed rape = assay: Test C postemergence; format: in vivo, Brassica napus
Source text: as §2

waterhemp = assay: Test C postemergence; format: in vivo, Amaranthus rudis
Source text: as §2

velvetleaf = assay: Test C postemergence; format: in vivo, Abutilon theophrasti
Source text: as §2

kochia = assay: Test C postemergence; format: in vivo, Kochia scoparia
Source text: as §2

## CCCc1nc(-c2ccc(F)cc2)nn1Cc1ccnc(C(F)(F)F)c1 [Compound 6, 4-[[3-(4-fluorophenyl)-5-propyl-1H-1,2,4-triazol-1-yl]methyl]-2-(trifluoromethyl)pyridine]
Barnyardgrass [1]; 125 g ai/ha
  pest or weed control at 125 g/ha: 80%
Barnyardgrass [1]; 500 g ai/ha, approx. 10 d
  pest or weed control at 500 g/ha: 100%
foxtail, giant [2]; 125 g ai/ha
  pest or weed control at 125 g/ha: 90%
foxtail, giant [2]; 500 g ai/ha
  pest or weed control at 500 g/ha: 90%
Pigweed [3]; 125 g ai/ha
  pest or weed control at 125 g/ha: 50%
Pigweed [3]; 500 g ai/ha
  pest or weed control at 500 g/ha: 100%
wheat; 125 g ai/ha
  plant injury at 125 g/ha: 40%
wheat; 500 g ai/ha
  plant injury at 500 g/ha: 70%
Barnyardgrass [4]
  pest or weed control at 250 g/ha: 40%
blackgrass; 31 g ai/ha
  Plant response rating (scale of 0 to 100 where 0 is no effect and 100 is complete control): 5
blackgrass; 62 g ai/ha
  Plant response rating (scale of 0 to 100 where 0 is no effect and 100 is complete control): 5
blackgrass; 125 g ai/ha
  Plant response rating (scale of 0 to 100 where 0 is no effect and 100 is complete control): 5
blackgrass; 250 g ai/ha
  Plant response rating (scale of 0 to 100 where 0 is no effect and 100 is complete control): 10
galium; 31 g ai/ha
  Plant response rating (scale of 0 to 100 where 0 is no effect and 100 is complete control): 80
galium; 62 g ai/ha
  Plant response rating (scale of 0 to 100 where 0 is no effect and 100 is complete control): 80
galium; 125 g ai/ha
  Plant response rating (scale of 0 to 100 where 0 is no effect and 100 is complete control): 90
galium; 250 g ai/ha
  Plant response rating (scale of 0 to 100 where 0 is no effect and 100 is complete control): 90
corn; 31 g ai/ha
  Plant response rating (scale of 0 to 100 where 0 is no effect and 100 is complete control): 10
corn; 62 g ai/ha
  Plant response rating (scale of 0 to 100 where 0 is no effect and 100 is complete control): 15
corn; 125 g ai/ha
  Plant response rating (scale of 0 to 100 where 0 is no effect and 100 is complete control): 20
corn; 250 g ai/ha
  Plant response rating (scale of 0 to 100 where 0 is no effect and 100 is complete control): 50
crabgrass, large; 31 g ai/ha
  Plant response rating (scale of 0 to 100 where 0 is no effect and 100 is complete control): 10
crabgrass, large; 62 g ai/ha
  Plant response rating (scale of 0 to 100 where 0 is no effect and 100 is complete control): 15
crabgrass, large; 125 g ai/ha
  Plant response rating (scale of 0 to 100 where 0 is no effect and 100 is complete control): 25
crabgrass, large; 250 g ai/ha
  Plant response rating (scale of 0 to 100 where 0 is no effect and 100 is complete control): 65
foxtail, giant [5]; 31 g ai/ha
  Plant response rating (scale of 0 to 100 where 0 is no effect and 100 is complete control): 40
foxtail, giant [5]; 62 g ai/ha
  Plant response rating (scale of 0 to 100 where 0 is no effect and 100 is complete control): 40
foxtail, giant [5]; 125 g ai/ha
  Plant response rating (scale of 0 to 100 where 0 is no effect and 100 is complete control): 45
foxtail, giant [5]; 250 g ai/ha
  Plant response rating (scale of 0 to 100 where 0 is no effect and 100 is complete control): 75
johnsongrass; 31 g ai/ha
  Plant response rating (scale of 0 to 100 where 0 is no effect and 100 is complete control): 10
johnsongrass; 62 g ai/ha
  Plant response rating (scale of 0 to 100 where 0 is no effect and 100 is complete control): 10
johnsongrass; 125 g ai/ha
  Plant response rating (scale of 0 to 100 where 0 is no effect and 100 is complete control): 15
johnsongrass; 250 g ai/ha
  Plant response rating (scale of 0 to 100 where 0 is no effect and 100 is complete control): 35
lambsquarters; 31 g ai/ha
  Plant response rating (scale of 0 to 100 where 0 is no effect and 100 is complete control): 65
lambsquarters; 62 g ai/ha
  Plant response rating (scale of 0 to 100 where 0 is no effect and 100 is complete control): 70
lambsquarters; 125 g ai/ha
  Plant response rating (scale of 0 to 100 where 0 is no effect and 100 is complete control): 85
lambsquarters; 250 g ai/ha
  Plant response rating (scale of 0 to 100 where 0 is no effect and 100 is complete control): 85
Pigweed [6]; 31 g ai/ha
  Plant response rating (scale of 0 to 100 where 0 is no effect and 100 is complete control): 80
Pigweed [6]; 62 g ai/ha
  Plant response rating (scale of 0 to 100 where 0 is no effect and 100 is complete control): 80
Pigweed [6]; 125 g ai/ha
  Plant response rating (scale of 0 to 100 where 0 is no effect and 100 is complete control): 85
Pigweed [6]; 250 g ai/ha
  Plant response rating (scale of 0 to 100 where 0 is no effect and 100 is complete control): 85
ragweed; 31 g ai/ha
  Plant response rating (scale of 0 to 100 where 0 is no effect and 100 is complete control): 75
ragweed; 62 g ai/ha
  Plant response rating (scale of 0 to 100 where 0 is no effect and 100 is complete control): 75
ragweed; 250 g ai/ha
  Plant response rating (scale of 0 to 100 where 0 is no effect and 100 is complete control): 80
Barnyardgrass [7]; 31 g ai/ha
  Plant response rating (scale of 0 to 100 where 0 is no effect and 100 is complete control): 20
Barnyardgrass [7]; 62 g ai/ha
  Plant response rating (scale of 0 to 100 where 0 is no effect and 100 is complete control): 20
Barnyardgrass [7]; 125 g ai/ha
  Plant response rating (scale of 0 to 100 where 0 is no effect and 100 is complete control): 25
Barnyardgrass [7]; 250 g ai/ha
  Plant response rating (scale of 0 to 100 where 0 is no effect and 100 is complete control): 40
Oilseed rape; Oilsee Rape, 250 g ai/ha
  Plant response rating (scale of 0 to 100 where 0 is no effect and 100 is complete control): 95
Oilseed rape; Oilseed Rape, 31 g ai/ha
  Plant response rating (scale of 0 to 100 where 0 is no effect and 100 is complete control): 55
Oilseed rape; Oilseed Rape, 62 g ai/ha
  Plant response rating (scale of 0 to 100 where 0 is no effect and 100 is complete control): 55
Oilseed rape; Oilseed Rape, 125 g ai/ha
  Plant response rating (scale of 0 to 100 where 0 is no effect and 100 is complete control): 95
waterhemp; 31 g ai/ha
  Plant response rating (scale of 0 to 100 where 0 is no effect and 100 is complete control): 80
waterhemp; 62 g ai/ha
  Plant response rating (scale of 0 to 100 where 0 is no effect and 100 is complete control): 80
waterhemp; 125 g ai/ha
  Plant response rating (scale of 0 to 100 where 0 is no effect and 100 is complete control): 80
waterhemp; 250 g ai/ha
  Plant response rating (scale of 0 to 100 where 0 is no effect and 100 is complete control): 85
velvetleaf; 31 g ai/ha
  Plant response rating (scale of 0 to 100 where 0 is no effect and 100 is complete control): 55
velvetleaf; 62 g ai/ha
  Plant response rating (scale of 0 to 100 where 0 is no effect and 100 is complete control): 55
velvetleaf; 125 g ai/ha
  Plant response rating (scale of 0 to 100 where 0 is no effect and 100 is complete control): 55
velvetleaf; 250 g ai/ha
  Plant response rating (scale of 0 to 100 where 0 is no effect and 100 is complete control): 55
kochia; 31 g ai/ha
  Plant response rating (scale of 0 to 100 where 0 is no effect and 100 is complete control): 90
kochia; 62 g ai/ha
  Plant response rating (scale of 0 to 100 where 0 is no effect and 100 is complete control): 90
kochia; 125 g ai/ha
  Plant response rating (scale of 0 to 100 where 0 is no effect and 100 is complete control): 90
kochia; 250 g ai/ha
  Plant response rating (scale of 0 to 100 where 0 is no effect and 100 is complete control): 90
